Patent US7829529B2, “Use of factor VIIa or a tissue factor antagonist for regulating gene expression and cell migration or chemotaxis” (Novo Nordisk Health Care A/G, priority 1999, dated 2010)
“Also recorded” adds a separate entry of the source. Starred links: 1 amine or outer side, 2 acyl side, 3 side chain; linkers in the order of their positions; H or OH if unused. Positions of bridges follow the written chain, without caps; N, C: chain ends. Non-standard residues stand in square brackets, D forms with d. Residues, ends and D or L forms follow the SMILES beside them. Chains are numbered I, II in the order given. Actinocin(9to1) = Cc1c2oc3c(C)ccc(C(=O)[*:1])c3nc-2c(C(=O)[*:2])c(N)c1=O; NMeV = CN[C@H](C(=O)O)C(C)C; Sar = CNCC(=O)O

Tests used:
[1] = test system: Human foreskin fibroblasts AG1523; experiment: Chemotaxis assay, leading front technique in modified Boyden chamber, towards PDGF-BB; assay type: cell-based; conditions: for effect on FVIIa/TF-mediated chemotactic response to PDGF-BB: 30 min pretreatment; for effect on enhanced migration response (hyperchemotaxis) transduced by FVIIa/TF: TAP 0.2-10 μM, Hirudin 5 U/ml; for effect on migration of fibroblasts in response to PDGF without FVIIa: no FVIIa present
Experimental: Fibroblasts expressing active TF (FIG. 1A and FIG. 1B) were incubated with 100 nM of FVIIa and seeded in the upper part of the modified Boyden chamber; while media containing 10% FBS and PDGF-BB at different concentrations were added below the 150 μm micropore filter. The migration of the cells under conditions where medium containing 10% FBS without PDGF-BB was added below the filter was used as a measure of random migration, and calculated as 100% migration. A significant migration response was recorded at a concentration of 0.01 ng/ml PDGF-BB in cells stimulated by FVIIa compared to 1 ng/ml PDGF-BB for cells not ligated with FVIIa, i.e. a 100-fold difference in concentration (FIG. 2). At 0.01-0.1 ng/ml PDGF-BB the migration response to FVIIa increased dose dependently, starting at 25 nM and with a maximal effect at 50-100 nM FVIIa (FIG. 3A-D). […] To test whether the proteolytically active FVIIa was mandatory for the hyperchemotactic response to PDGF-BB, fibroblasts were also incubated with 100 nM FFR-FVIIa and assayed in the Boyden chamber in the same way (FIG. 2).
An irrelevant monoclonal IgG antibody did neither prevent hyperchemotaxis induced by FVIIa nor the inhibition of the migration response induced by FFR-FVIIa (data not shown).
Chemotaxis assay. The migration response of fibroblasts was assayed by means of the leading front technique in a modified Boyden chamber, as previously described (Siegbahn, A., Hanimacher, A., Westermark, B., Heldin, C-H. Differential effects of the various isoforms of platelet-derived growth factor on chemotaxis of fibroblasts, monocytes, and granulocytes. J. Clin. Invest. 85, 916-920 (1990) and Nistér, M., Hammacher, A., Mellström, K., Siegbahn, A., Rönnstrand, L., Westermark, B., Heldin, C-H. A glioma-derived PDGF A chain homodimer has different functional activities from a PDGF AB heterodimer purified from human platelets. Cell 52, 791-799 (1988)). Micropore filters (pore size 8 μm) were coated with a solution of type-1 collagen at room temperature over night. The filters were air dried for 30 minutes immediately before use. Human foreskin fibroblasts AG1523, were grown to confluence in Eagle's MEM supplemented with 10% FBS. The cells were detached by trypsinization (2.5 mg/ml for 10 minutes at 37° C.) and suspended in Eagle's MEM with 10% FBS. The fibroblasts were incubated for 10 minutes with or without FVIIa or FFR-FVIIa before assay. One hundred microliters of the cell suspension (2×10^5 cells/ml) was added above the filter of the Boyden chamber. PDGF-BB was diluted in assay media (Eagle's MEM with 10% FBS) and added below the filter in the chamber. The cells were incubated for 6 hours at 37° C. in a humidified chamber containing 95% air/5% CO2. FVIIa or FFR-FVIIa were present during the entire experiment. The filters were then removed, fixed in ethanol, stained with Mayer's Hemalun, and mounted. Migration was measured as the distance of the two furthest migrating fibroblast nuclei of one high-power field (12.5×24) in focus. The migration distance in each filter was calculated as the mean of the readings of at least three different parts of the filter. Experiments were performed with two to four separate filters for each concentration of chemoattractant. For each set of experiments, the migration of fibroblasts toward the assay media served as control.
In cases when anti-TF monoclonal antibodies or inhibitors to coagulation factors, TAP and Hirudin, were used, cells were preincubated for 10 minutes with these agents, then with or without FVIIa or FFR-FVIIa before the chemotaxis assay was performed. Antibodies, TAP or Hirudin were also present during the entire chemotaxis experiment. In experiments where the effects on the migration response of different inhibitors, LY294002, U73122 or U73343, were tested, cells were preincubated for 30 minutes with the inhibitors at indicated concentrations, and the inhibitors were also present throughout the experiments.

[2] = test system: Cyr61 mRNA in WI-38 cells; experiment: Northern blot analysis of Cyr61 expression; assay type: cell-based, human; conditions: for effect on VIIa-induced expression of Cyr61: 30 min preincubation, then VIIa 5 μg/ml 45 min, TAP 200 nM, actinomycin D and cycloheximide 10 μg/ml
Experimental: Northern Blot Analysis. Total RNA was prepared using TRIZOL reagent from quiescent monolayer of WI-38 cells that were exposed to VIIa and other materials as described in Results. Northern blot analysis was carried out using standard procedure. Briefly, 10 μg of total RNA was size fractionated by gel electrophoresis in 1% agarose/6% formaldehyde gels and transferred onto the nitrocellulose membrane by a capillary blot method. Northern blots were prehybridized at 42° C. with a solution containing 50% formamide, 5×SSC, 50 mM Tris.HCl, pH 7.5, 0.1% sodium pyrophosphate, 1% SDS, 1% polyvinylpyrrolidone, 1% Ficoll, 25 mM EDTA, 100 μg/ml denatured salmon sperm DNA and 1% BSA and hybridized with ^32P-labeled Cyr61 cDNA probe (106 cpm/ml). The hybridized membranes were exposed to either Dupont NEF or Fuji RX X-ray film. For quantification purposes, the membranes were exposed to phosphor screen for 1 to 4 h, and the exposed screens were analyzed in a Phosphorlmger (Molecular Dynamics) using “Image-quant” software. To obtain mean values, the units (counts) obtained from different experiments were normalized to an internal control (counts present in control-treated sample).
Confirmation of differential expression of Cyr61. To validate the data obtained in microarray, we have patiented the RNA samples from the control and VIIa-treated cells (the same RNA samples that have been used to prepare poly (A) RNA for probe generation in the microarray) to Northern blot analysis and probed with radiolabeled Cyr61 cDNA. […] However, the intensity of hybridization signal was much higher in RNA isolated from VIIa-treated cells (FIG. 11).
Kinetics of Vila-induced expression of Cyr61. To determine the kinetics of Cyr61 expression, quiescent fibroblasts were treated for varying time periods with 5 μg/ml VIIa. Total RNA was extracted and patiented to Northern blot analysis. […] The expression was peaked at about 45 min and thereafter declined to the base level in 2 to 3 h. Since it had been reported that expression of Cyr61 in mouse fibroblasts after stimulation with serum and growth factor was sustained for several hours (up to 8 to 10 h) before repression occurs, we have examined the effect of serum and PDGF on kinetics of Cyr61 expression in quiescent human fibroblasts, WI-38. […] Similar results obtained with serum-induced expression of Cyr61 (data not shown).
Factor VIIa-dose dependent induced expression of Cyr61. To determine dose-dependency of VIIa, quiescent fibroblasts were treated with varying doses FVIIa (0.1 to 5 μg/ml) for 45 min and then total RNA samples from the cells were patiented to Northern blot analysis.
Factor VIIa-catalytic activity is required for Cyr61 induction. To test whether VIIa catalytic activity is required for the induction of Cyr61, WI-38 cells were treated with VIIa and active-site inactivated FVIIa (FVIIai) for 45 min and the expression of Cyr61 was evaluated by Northern blot analysis. […] It is unlikely that VIIa-induced expression of Cyr61 in our experiments was the result of generation of down-stream coagulation factors, FXa and thrombin.
Involvement of transcriptional mechanism for the induction of Cyr61 mMRNA steady-state levels by VIIa. To investigate whether transcription is involved in VIIa-mediated increase in Cyr61 mRNA steady-state levels, quiescent WI-38 cells were incubated with actinomycin-D (10 μg/ml) for 30 min before the addition of VIIa for 45 min. […] This finding indicates a transcriptional mechanism for induction of Cyr61.
To investigate whether de novo protein synthesis is required for the induction of Cyr61 nRNA by VIIa, WI-38 cells were pretreated with the protein synthesis inhibitor cycloheximide before the cells were exposed to VIIa for 45 min.

[3] = test system: PLC-γ1 in AG1518 fibroblasts; experiment: Assay for agonist-induced PLC-γ1 tyrosine phosphorylation; assay type: cell-based, human; conditions: 100 nM FVIIa or FFR-FVIIa one hour; PDGF-BB 2, 10 or 100 ng/ml 5 minutes
Experimental: In order to determine whether the PLC-γ1 isoform, which is activated by certain tyrosine kinase receptors, was responsible for the increased PLC activity induced by FVIIa/TF, tyrosine phosphorylation of PLC-γ1 was studied. Fibroblasts were incubated in the absence or presence of 100 nM FVIIa or FFR-FVIIa for one hour, followed by the stimulation with 0, 2, 10 or 100 ng/ml PDGF-BB. After 5 minutes of incubation, the cells were lysed and PLC-γ1 was immunoprecipitated, separated by SDS-PAGE and immunoblotted with antiphosphotyrosine antibodies. […] Thus, other PLC isoforms than PLC-γ1 are responsible for the increased PLC activity after FVIIa stimulation.
Assay for agonist-induced PLC-γ1 phosphorylation. Semi-confluent cultures of AG1518 were serum starved overnight (approx. 20 hours) in medium containing 0.1% FBS, and then incubated in the absence or presence of 100 nM FVIIa or FFR-FVIIa for one hour followed by incubation with 0, 2, 10 or 100 ng/ml PDGF-BB for 5 minutes at 37° C. […]

[4] = 100 nM FVIIa, 0.1 ng/ml PDGF-BB

## COc1ccc2c(c1)CC[C@@H]1[C@@H]2CC[C@]2(C)[C@@H](NCCCCCCN3C(=O)C=CC3=O)CC[C@@H]12 [U73122]
[1]; [4]
  concentration giving total inhibition of the hyperchemotactic response: 1 µM
  effect on FVIIa/TF-mediated chemotactic response to PDGF-BB: inhibited the hyperchemotacic response to 0.1 ng/ml PDGF-BB in a dose-dependent way

## COc1ccc2c(c1)CC[C@@H]1[C@@H]2CC[C@]2(C)[C@@H](NCCCCCCN3C(=O)CCC3=O)CC[C@@H]12 [U73343]
[1]; [4]
  effect on FVIIa/TF-mediated chemotactic response to PDGF-BB: No effect on chemotaxis

## Cc1c2oc3c(C)ccc(C(=O)N[C@@H]4C(=O)N[C@H](C(C)C)C(=O)N5CCC[C@H]5C(=O)N(C)CC(=O)N(C)[C@@H](C(C)C)C(=O)O[C@@H]4C)c3nc-2c(C(=O)N[C@@H]2C(=O)N[C@H](C(C)C)C(=O)N3CCC[C@H]3C(=O)N(C)CC(=O)N(C)[C@@H](C(C)C)C(=O)O[C@@H]2C)c(N)c1=O [actinomycin-D] (I: T[dV]P[Sar][NMeV] / II: T[dV]P[Sar][NMeV]; ester I:1-I:C, II:1-II:C; linker I:N-II:N via Actinocin(9to1))
[2]
  effect on VIIa-induced expression of Cyr61: inhibited the stimulator effect of VIIa

## C[C@@H]1C[C@@H]([C@H](O)CC2CC(=O)NC(=O)C2)C(=O)[C@@H](C)C1 [cycloheximide]
[2]
  effect on VIIa-induced expression of Cyr61: not blocked; also recorded: markedly increased the VIIa-induced Cyr61 mRNA steady-state levels

## Hirudin
[1]; 100 nM FVIIa
  effect on enhanced migration response (hyperchemotaxis) transduced by FVIIa/TF: Neither addition of 5 U/ml Hirudin, a specific thrombin inhibitor, had any effect
[1]
  effect on migration of fibroblasts in response to PDGF without FVIIa: did not influence
[2]
  effect on VIIa-induced expression of Cyr61: failed to abolish

## TAP: Recombinant Tick anticoagulant peptide, specifically blocks the active site of FXa (YNRLCIKPRDWIDECDSNEGGERAYFRNGKGGCDSFWICPEDHTGADYYSSYRDCFNACI; UniProt P17726 1-60, looked up)
[1]; 100 nM FVIIa
  effect on enhanced migration response (hyperchemotaxis) transduced by FVIIa/TF: not blocked
[1]
  effect on migration of fibroblasts in response to PDGF without FVIIa: did not influence
[2]
  effect on VIIa-induced expression of Cyr61: failed to abolish

## thrombin
[2]; conditions not given
  induction of Cyr61 expression (data not shown): could also induce the expression of Cyr61

B1: PDGF-BB: platelet-derived growth factor BB, chemotactic factor for human fibroblasts (protein, UniProt P01127 82-190, looked up)
Platelet-derived growth …: SLGSLTIAEPAMIAECKTRTEVFEISRRLIDRTNANFLVWPPCVEVQRCSGCCNNRNVQCRPTQVQLRPVQVRKIEIVRKKPIFKKATVTLEDHLACKCETVAAARPVT
[3]
  tyrosine phosphorylation of PLC-γ1, agent alone: significant increase in tyrosine phosphorylation of PLC-γ1
[2]; PDGF-BB 10 ng/ml
  kinetics of Cyr61 expression upon stimulation: expressed only transiently
  time to full repression of Cyr61 after addition of stimuli: 2 h
